Experimental data: US11214594B2, “Antimicrobial peptide having synergistic antibacterial effect with antibiotics on multidrug resistant bacteria, and use thereof” (priority 2016, dated 2022)
≈ marks a conversion by molar mass, not a printed value. Read-outs that look alike come from different tables or passages of the source. Where a SMILES comes first, the peptide text is derived from it.

Experiments:
[1] = test system: MDREC 1238; assay type: cell-based, Escherichia coli
Outline: (§1)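 Broth microdilution in MH medium: strains diluted to 2×10^6 CFU were mixed with equal volumes of twofold serial peptide dilutions in MH medium. MIC was taken as the lowest peptide concentration preventing bacterial growth.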

[2] = test system: P. aeruginosa; assay: microbe, parasite or virus in culture; assay type: cell-based, Pseudomonas aeruginosa
Outline: as §1

[3] = test system: MDRPA 2003; assay type: cell-based, Pseudomonas aeruginosa
Outline: as §1

[4] = test system: MDRAB 12036; assay type: cell-based, Acinetobacter baumannii
Outline: as §1

[5] = test system: MDRST 8009; assay type: cell-based, Salmonella typhimurium; details: agent alone
Outline: as §1

[6] = test system: S. epidermidis; assay: microbe, parasite or virus in culture; assay type: cell-based, Staphylococcus epidermidis
Outline: as §1

[7] = test system: MDREC 1229; assay: MIC of antibiotic during combined treatment with antimicrobial peptide; assay type: cell-based, Escherichia coli
Outline: (§2)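 Strains in MH medium at 2×10^6 CFU/ml were mixed with peptide diluted stepwise (2:1) from its MIC, then antibiotic dilutions in MH medium were added to give the antibiotic MIC. The reversed set-up, peptide titrated against fixed antibiotic, gave the peptide MIC.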

[8] = test system: A. baumannii; assay: as above; assay type: cell-based, Acinetobacter baumannii; details: for Antibiotic MIC, Erythromycin / Antibiotic MIC, Linezolid / Antibiotic MIC, Vancomycin: A. baumannii
Outline: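 Checkerboard-type MIC of peptide–antibiotic mixtures in MH medium: the antibiotic was serially diluted in MH medium and added to wells, then the reversed arrangement was also tested.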

[9] = test system: MDRAB 12035; assay: as above; assay type: cell-based, Acinetobacter baumannii
Outline: as §2

[10] = test system: E. coli; assay type: cell-based, Escherichia coli; details: E. coli
Outline: as §2

[11] = test system: MDREC 1229; assay type: cell-based, Escherichia coli
Outline: as §2

[12] = test system: A. baumannii; assay: MIC of antimicrobial peptide during combined treatment with antibiotic; assay type: cell-based, Acinetobacter baumannii
Outline: as §2

[13] = test system: MDRAB 12035; assay: as above; assay type: cell-based, Acinetobacter baumannii
Outline: as §2

[14] = peptide treatment concentration 1 μg/ml
[15] = peptide treatment concentration 2 μg/ml
[16] = peptide treatment concentration 4 μg/ml
[17] = peptide treatment concentration 6 μg/ml
[18] = peptide treatment concentration 8 μg/ml
[19] = peptide treatment concentration 16 μg/ml
[20] = peptide treatment concentration 32 μg/ml
[21] = peptide treatment concentration 64 μg/ml
[22] = combined with peptide at 1 μg/ml
[23] = combined with peptide at 2 μg/ml
[24] = combined with peptide at 4 μg/ml
[25] = combined with peptide at 6 μg/ml
[26] = combined with peptide at 8 μg/ml
[27] = combined with peptide at 16 μg/ml
[28] = combined with peptide at 32 μg/ml
[29] = combined with peptide at 64 μg/ml
[30] = linezolid 64 μg/ml (Conc./MIC 1/8)
[31] = linezolid 512 μg/ml (Conc./MIC 1)
[32] = vancomycin 512 μg/ml (Conc./MIC 1/2)
[33] = vancomycin 1024 μg/ml (Conc./MIC 1)
[34] = erythromycin 4 μg/ml (Conc./MIC 1/8)
[35] = erythromycin 8 μg/ml (Conc./MIC 1/4)
[36] = erythromycin 16 μg/ml (Conc./MIC 1/2)
[37] = erythromycin 32 μg/ml (Conc./MIC 1)

CC[C@H](C)[C@H](NC(=O)[C@H](CCCCN)NC(=O)[C@H](Cc1c[nH]c2ccccc12)NC(=O)[C@@H](N)CCCNC(=N)N)C(=O)N[C@@H](Cc1ccccc1)C(=O)N[C@@H](CCCCN)C(=O)N[C@@H](CCCCN)C(=O)N[C@H](C(=O)N1CCC[C@H]1C(=O)N[C@@H](CCCCN)C(=O)N[C@@H](Cc1ccccc1)C(=O)N[C@@H](CC(C)C)C(=O)N[C@@H](Cc1c[nH]cn1)C(=O)N[C@@H](CCC(=O)O)C(=O)N[C@@H](C)C(=O)N[C@@H](CCCCN)C(=O)N[C@@H](CCCCN)C(=O)N[C@@H](Cc1c[nH]c2ccccc12)C(N)=O)[C@@H](C)CC [PapMA-14, RWK IFK KIP KFL HEA KKW-NH2] (H-RWKIFKKIPKFLHEAKKW-NH2; N-terminus assumed)
Minimal inhibitory concentration MIC [1]: 16 µg/mL (≈ 6.71 µM)
Minimal inhibitory concentration MIC [2]: 64 µg/mL (≈ 26.9 µM)
Minimal inhibitory concentration MIC [3]: 64 µg/mL (≈ 26.9 µM)
Minimal inhibitory concentration MIC [4]: 16 µg/mL (≈ 6.71 µM)
Minimal inhibitory concentration MIC [5]: 32 µg/mL (≈ 13.4 µM)
Minimal inhibitory concentration MIC [6]: >128 µg/mL
Antibiotic MIC, Erythromycin [7, 14]: 128 µg/mL
Antibiotic MIC, Linezolid [7, 14]: >128 µg/mL
Antibiotic MIC, Vancomycin [7, 14]: >128 µg/mL
Antibiotic MIC, Erythromycin [7, 15]: 32 µg/mL
Antibiotic MIC, Linezolid [7, 15]: 128 µg/mL
Antibiotic MIC, Vancomycin [7, 15]: >128 µg/mL
Antibiotic MIC, Erythromycin [7, 16]: 8 µg/mL
Antibiotic MIC, Linezolid [7, 16]: 32 µg/mL
Antibiotic MIC, Vancomycin [7, 16]: 128 µg/mL
Antibiotic MIC, Erythromycin [7, 17]: 4 µg/mL
Antibiotic MIC, Linezolid [7, 17]: 16 µg/mL
Antibiotic MIC, Vancomycin [7, 17]: 32 µg/mL
Antibiotic MIC, Erythromycin [7, 18]: 1 µg/mL
Antibiotic MIC, Linezolid [7, 18]: 16 µg/mL
Antibiotic MIC, Vancomycin [7, 18]: 8 µg/mL
Antibiotic MIC, Erythromycin [7, 19]: 0 µg/mL
Antibiotic MIC, Linezolid [7, 19]: 0 µg/mL
Antibiotic MIC, Vancomycin [7, 19]: 0 µg/mL
Antibiotic MIC, Erythromycin [7, 20]: 0 µg/mL
Antibiotic MIC, Linezolid [7, 20]: 0 µg/mL
Antibiotic MIC, Vancomycin [7, 20]: 0 µg/mL
Antibiotic MIC, Erythromycin [7, 21]: 0 µg/mL
Antibiotic MIC, Linezolid [7, 21]: 0 µg/mL
Antibiotic MIC, Vancomycin [7, 21]: 0 µg/mL
Synergistic effect of antibacterial activity with existing antibiotics compared with PapMA-1 ([8]; A. baumannii and MDRAB 12035): higher level than the PapMA-1 peptide
Antibiotic MIC, Erythromycin [8, 22]: 16 µg/mL
Antibiotic MIC, Linezolid [8, 22]: 128 µg/mL
Antibiotic MIC, Vancomycin [8, 22]: >128 µg/mL
Antibiotic MIC, Erythromycin [8, 23]: 8 µg/mL
Antibiotic MIC, Linezolid [8, 23]: 32 µg/mL
Antibiotic MIC, Vancomycin [8, 23]: 64 µg/mL
Antibiotic MIC, Erythromycin [8, 24]: 2 µg/mL
Antibiotic MIC, Linezolid [8, 24]: 8 µg/mL
Antibiotic MIC, Vancomycin [8, 24]: 8 µg/mL
Antibiotic MIC, Erythromycin [8, 25]: 0.5 µg/mL
Antibiotic MIC, Linezolid [8, 25]: 1 µg/mL
Antibiotic MIC, Vancomycin [8, 25]: 2 µg/mL
Antibiotic MIC, Erythromycin [8, 26]: 0.25 µg/mL
Antibiotic MIC, Linezolid [8, 26]: 0.5 µg/mL
Antibiotic MIC, Vancomycin [8, 26]: 1 µg/mL
Antibiotic MIC, Erythromycin [8, 27]: 0 µg/mL
Antibiotic MIC, Linezolid [8, 27]: 0 µg/mL
Antibiotic MIC, Vancomycin [8, 27]: 0 µg/mL
Antibiotic MIC, Erythromycin [8, 28]: 0 µg/mL
Antibiotic MIC, Linezolid [8, 28]: 0 µg/mL
Antibiotic MIC, Vancomycin [8, 28]: 0 µg/mL
Antibiotic MIC, Erythromycin [8, 29]: 0 µg/mL
Antibiotic MIC, Linezolid [8, 29]: 0 µg/mL
Antibiotic MIC, Vancomycin [8, 29]: 0 µg/mL
Erythromycin MIC during combined treatment with peptide [9, 14]: 16 µg/mL
Linezolid MIC during combined treatment with peptide [9, 14]: 128 µg/mL
Vancomycin MIC during combined treatment with peptide [9, 14]: >128 µg/mL
Erythromycin MIC during combined treatment with peptide [9, 15]: 8 µg/mL
Linezolid MIC during combined treatment with peptide [9, 15]: 64 µg/mL
Vancomycin MIC during combined treatment with peptide [9, 15]: 64 µg/mL
Erythromycin MIC during combined treatment with peptide [9, 16]: 4 µg/mL
Linezolid MIC during combined treatment with peptide [9, 16]: 16 µg/mL
Vancomycin MIC during combined treatment with peptide [9, 16]: 16 µg/mL
Erythromycin MIC during combined treatment with peptide [9, 17]: 1 µg/mL
Linezolid MIC during combined treatment with peptide [9, 17]: 4 µg/mL
Vancomycin MIC during combined treatment with peptide [9, 17]: 4 µg/mL
Erythromycin MIC during combined treatment with peptide [9, 18]: 0.5 µg/mL
Linezolid MIC during combined treatment with peptide [9, 18]: 1 µg/mL
Vancomycin MIC during combined treatment with peptide [9, 18]: 1 µg/mL
Erythromycin MIC during combined treatment with peptide [9, 19]: 0 µg/mL
Linezolid MIC during combined treatment with peptide [9, 19]: 0 µg/mL
Vancomycin MIC during combined treatment with peptide [9, 19]: 0 µg/mL
Erythromycin MIC during combined treatment with peptide [9, 20]: 0 µg/mL
Linezolid MIC during combined treatment with peptide [9, 20]: 0 µg/mL
Vancomycin MIC during combined treatment with peptide [9, 20]: 0 µg/mL
Erythromycin MIC during combined treatment with peptide [9, 21]: 0 µg/mL
Linezolid MIC during combined treatment with peptide [9, 21]: 0 µg/mL
Vancomycin MIC during combined treatment with peptide [9, 21]: 0 µg/mL
Peptide MIC ([10]; with Erythromycin […] (Conc./MIC 1)): 0 µg/mL
Peptide MIC ([10]; with Linezolid […] (Conc./MIC 1)): 0 µg/mL
Peptide MIC ([10]; with Vancomycin 1024 μg/ml (Conc./MIC 1)): 0 µg/mL
Peptide MIC during treatment with antibiotic ([11]; erythromycin 32 μg/ml (Conc./MIC 1/8)): 2 µg/mL
Peptide MIC during treatment with antibiotic ([11]; erythromycin 64 μg/ml (Conc./MIC 1/4)): 2 µg/mL
Peptide MIC during treatment with antibiotic ([11]; erythromycin […] (Conc./MIC 1)): 0 µg/mL
Peptide MIC during treatment with antibiotic ([11]; erythromycin […] (Conc./MIC 1/2)): 1 µg/mL
Peptide MIC during treatment with antibiotic [11, 30]: 4 µg/mL
Peptide MIC during treatment with antibiotic [11, 31]: 0 µg/mL
Peptide MIC during treatment with antibiotic ([11]; linezolid […] (Conc./MIC 1/2)): 1 µg/mL
Peptide MIC during treatment with antibiotic ([11]; linezolid […] (Conc./MIC 1/4)): 2 µg/mL
Peptide MIC during treatment with antibiotic [11, 32]: 2 µg/mL
Peptide MIC during treatment with antibiotic [11, 33]: 1 µg/mL
Peptide MIC during treatment with antibiotic ([11]; vancomycin […] (Conc./MIC 1/4)): 4 µg/mL
Peptide MIC during treatment with antibiotic ([11]; vancomycin […] (Conc./MIC 1/8)): 4 µg/mL
Peptide MIC during treatment with antibiotic [12, 34]: 4 µg/mL
Peptide MIC during treatment with antibiotic [12, 35]: 2 µg/mL
Peptide MIC during treatment with antibiotic [12, 36]: 1 µg/mL
Peptide MIC during treatment with antibiotic [12, 37]: 0 µg/mL
Peptide MIC during treatment with antibiotic ([12]; linezolid 32 μg/ml (Conc./MIC 1/8)): 2 µg/mL
Peptide MIC during treatment with antibiotic ([12]; linezolid 64 μg/ml (Conc./MIC 1/4)): 2 µg/mL
Peptide MIC during treatment with antibiotic ([12]; linezolid […] (Conc./MIC 1)): 0 µg/mL
Peptide MIC during treatment with antibiotic ([12]; linezolid […] (Conc./MIC 1/2)): 1 µg/mL
Peptide MIC during treatment with antibiotic [12, 32]: 0.25 µg/mL
Peptide MIC during treatment with antibiotic [12, 33]: 0 µg/mL
Peptide MIC during treatment with antibiotic ([12]; vancomycin […] (Conc./MIC 1/4)): 0.5 µg/mL
Peptide MIC during treatment with antibiotic ([12]; vancomycin […] (Conc./MIC 1/8)): 2 µg/mL
Peptide MIC during treatment with erythromycin [13, 34]: 4 µg/mL
Peptide MIC during treatment with erythromycin [13, 35]: 2 µg/mL
Peptide MIC during treatment with erythromycin [13, 36]: 1 µg/mL
Peptide MIC during treatment with erythromycin [13, 37]: 0 µg/mL
Peptide MIC during treatment with linezolid [13, 30]: 2 µg/mL
Peptide MIC during treatment with linezolid [13, 31]: 0 µg/mL
Peptide MIC during treatment with linezolid ([13]; linezolid […] (Conc./MIC 1/2)): 1 µg/mL
Peptide MIC during treatment with linezolid ([13]; linezolid […] (Conc./MIC 1/4)): 1 µg/mL
Peptide MIC during treatment with vancomycin [13, 32]: 1 µg/mL
Peptide MIC during treatment with vancomycin [13, 33]: 1 µg/mL
Peptide MIC during treatment with vancomycin ([13]; vancomycin […] (Conc./MIC 1/4)): 2 µg/mL
Peptide MIC during treatment with vancomycin ([13]; vancomycin […] (Conc./MIC 1/8)): 2 µg/mL
